Source: article PMC5789597, “Cytotoxicity of seputhecarpan D, thonningiol and 12 other phytochemicals from African flora towards human carcinoma cells” (BMC Complementary and Alternative Medicine, 2018)
Where two headings read alike, the source gives them in different places.

How the values were obtained:
[1] = tested on: MCF-7 breast adenocarcinoma cells; assay: Neutral red (NR) uptake cytotoxicity assay, MCF7; type: cell-based, human; conditions: for IC50: Homo sapiens, MCF7, NR assay, 72 h incubation; for selectivity index, MCF7: IC50 in CRL2120 normal fibroblasts divided by IC50 in MCF7
Excerpt: (§1) DMSO at 0.1% was used as solvent control.

[2] = tested on: DLD-1 colorectal adenocarcinoma cells; assay: Neutral red (NR) uptake cytotoxicity assay, DLD-1; type: cell-based, human; conditions: for IC50: Homo sapiens, DLD-1, NR assay, 72 h incubation; for selectivity index, DLD-1: IC50 in CRL2120 normal fibroblasts divided by IC50 in DLD-1
Excerpt: as §1

[3] = tested on: HepG2 hepatocarcinoma cells; assay: Neutral red (NR) uptake cytotoxicity assay, HepG2; type: cell-based, human; conditions: for IC50: Homo sapiens, HepG2, NR assay, 72 h incubation; for selectivity index, HepG2: IC50 in CRL2120 normal fibroblasts divided by IC50 in HepG2
Excerpt: as §1

[4] = tested on: normal CRL2120 human skin fibroblasts; assay: Neutral red (NR) uptake cytotoxicity assay, normal fibroblasts; type: cell-based; conditions: Skin fibroblast, 72 h incubation
Excerpt: as §1

[5] = Neutral red (NR) uptake cytotoxicity assay, Caco-2; conditions: human, Caco-2
Excerpt: (§3) Four human carcinoma cell lines and one normal cell line were used. They were: DLD-1 and Caco-2 colorectal adenocarcinoma cell lines, HepG2 hepatocarcinoma cells, MCF-7 breast adenocarcinoma cells and the normal CRL2120 human skin fibroblasts. Caco-2 cells (from the ŞAP Institute of Ankara,Turkey andMCF-7 cells (from ATCC) provided by Prof. Dr. Tansu Koparal (Anadolu University, Eskisehir, Turkey),HepG2, DLD-1 and CRL2120 cells were obtained from American Type Culture Collection (ATCC); DMEM medium (Sigma-aldrich, Munich, Germany) was used to maintain cells as a monolayer and was supplemented with 10% fetal calf serum and 1% penicillin (100 U/mL)-streptomycin (100 μg/mL) in a humidified 5% CO2 atmosphere at 37 °C.
(§4) Dimethylsufoxide (DMSO) at less than 0.1% final concentration was used to dilute the tested samples. DMSO at 0.1% was used as solvent control. The incubation time was 72 h incubation in humidified 5% CO2 atmosphere at 37 °C, followed by NR coloration as previously described [23, 24]. ELx 808 Ultra Microplate Reader (Biotek) equipped with a 540 nm filter was used to measure the absorbance. Each experiment was performed at least three times, with three replicates each. The viability was evaluated based on a comparison with untreated cells. The IC50 values represented the sample’s concentrations required to inhibit 50% of cell proliferation and were calculated from a calibration curve by linear regression using Microsoft Excel [26] as follows: for each sample, the cell growth percentages at the different concentrations were used to draw the calibration curve with logarithmic regression obtained by 2 measuring points (one smaller and one larger than 50%) from where the IC50 value was deduced.

[6] = tested on: Caco-2 colorectal adenocarcinoma cells; assay: Neutral red (NR) uptake cytotoxicity assay, Caco-2; conditions: read-out: IC50 values, Caco-2
Excerpt: as §3, §4

[7] = tested on: MCF-7 cells; assay: Cell cycle analysis and detection of apoptosis by flow cytometry; type: cell-based, human; conditions: for percentages of cells in sub-G0/G1 phase: MCF-7, 2 × IC50 (as printed in text); for percentages of cells in sub-G0/G1 phase / Growth (percentage of control) Sub-G0; percentage of cells in sub-G0/G1 phase: non-treated cells 3.1%; for Growth (percentage of control) Sub-G0; percentage of cells in sub-G0/G1 phase: MCF-7, 72 h, ¼ x IC50
Experimental: Cells were tested in 6-well plates (3 mL, 1 × 10^5 cells/mL) and the incubation time was 72 h in humidified 5% CO2 atmosphere at 37 °C. […] Untreated cells (control) were used for comparison with treated cells. The BD FACS Aria I Cell Sorter Flow Cytometer (Becton-Dickinson, Germany) was then used for cell cycle analysis. For each sample, 10^4 cells were counted. For PI excitation, an argon-ion laser emitting at 488 nm was used. Cytographs were analyzed using BD FACSDiva™ Flow Cytometry Software Version 6.1.2 (Becton-Dickinson).

[8] = tested on: caspases 3/7 in MCF-7 cells; assay: Caspase-Glo 3/7 assay; type: cell-based, human; conditions: MCF-7, 6 h, optimal activity generally at IC50, vs untreated control
Excerpt: (§2) The BioTek Synergy™ HT multi-detection microplate reader was used to measure the luminescence and Caspase activity was expressed as percentage of the untreated control.

[9] = tested on: caspase 9 in MCF-7 cells; assay: Caspase-Glo 9 assay; type: cell-based, human; conditions: MCF-7, 6 h, optimal activity generally at IC50, vs untreated control
Excerpt: as §2

[10] = tested on: MCF-7 cells; assay: Integrity of mitochondrial membrane potential (JC-1 staining, flow cytometry); type: cell-based, human; conditions: MCF-7, 72 h, IC50; control 6.0%
Experimental: Cells were tested in 6-well plates (3 mL, 1 × 10^5 cells/mL) and the incubation time was 72 h in humidified 5% CO2 atmosphere at 37 °C. The tested concentrations were ¼ × IC50, ½ × IC50 and IC50. Untreated cells (control) were used for comparison with treated cells. JC-1 staining was performed according to the manufacturer’s protocol as reported previously. Cells were then measured in a BD FACS Aria I Cell Sorter Flow Cytometer (Becton-Dickinson, Germany). The JC-1 signal was measured at an excitation wavelength of 561 nm (150 mW) and detected using a 586/15 nm band-pass filter. The signal was analyzed at an excitation wavelength of 640 nm (40 mW) and detected using a 730/45 nm bandpass filter. Cytographs were analyzed using BD FACSDiva™ Flow Cytometry Software Version 6.1.2 (Becton-Dickinson). All experiments were performed at least in triplicates.

[11] = tested on: MCF-7 cells; assay: Reactive oxygen species production (H2DCFH-DA); type: cell-based, human; conditions: MCF-7, 24 h, at IC50, compared to non-treated cells
Experimental: Cells were tested in 6-well plates (3 mL, 1 × 10^5 cells/mL) and the incubation time was 24 h in humidified 5% CO2 atmosphere at 37 °C. The tested concentrations were ¼ × IC50, ½ × IC50 and IC50. Untreated cells (control) were used for comparison with treated cells. The fluorescence was measured using SpectraMax® M5 Microplate Reader (Molecular Devices, Biberach, Germany) at 480/530 nm. All experiments were performed at least in triplicates.

[12] = tested on: four tested cancer cell lines (MCF-7, DLD-1, Caco-2, HepG2); assay: Neutral red (NR) uptake cytotoxicity assay, summary over the four tested cancer cell lines; type: cell-based; conditions: Homo sapiens; all 4/4 tested cancer cell lines; read-out: IC50 values against the four tested cancer cell lines
Excerpt: as §1

Structure (SMILES)	IC50 [1]	IC50 [2]	IC50 [3]	IC50 [4]	selectivity ratio at 72 h [5]	IC50 ([6]; Homo sapiens, Caco-2, 72 h)	selectivity index, MCF7 [1]	selectivity index, HepG2 [3]	selectivity index, DLD-1 [2]	percentages of cells in sub-G0/G1 phase [7]	Growth (percentage of control) Sub-G0; percentage of cells in sub-G0/G1 phase [7]	cell cycle arrest (phase) ([7]; MCF-7 cells, 72 h)	increase of caspases 3/7 activity [8]	increase of caspase 9 activity [9]	P2: cells with altered MMP (MMP depletion) [10]	increase in ROS levels [11]	IC50 [12]	IC50 ([6]; NR assay, 72 h incubation)
CCC(/C=C/[C@@H](C)C1CCC2C3=CCC4C[C@@H](O)CCC4(C)C3CCC21C)C(C)C (stereo partly drawn) [Compound 1, β-spinasterol]	> 97.1 µM	> 97.1 µM	> 97.1 µM	> 97.1 µM	> 1.39	69.8 ± 5.12 µM												
C[C@H]1C(=O)CC[C@@H]2[C@]1(C)CC[C@H]1[C@@]2(C)CC[C@@]2(C)[C@@H]3CC(C)(C)CC[C@]3(C)CC[C@]12C [Compound 2, friedelanone]	70.8 ± 4.95 µM	> 93.9 µM	> 93.9 µM	> 93.9 µM		> 93.9 µM	> 1.33											
CC(=O)O[C@H]1CC[C@]2(C)[C@H]3CC=C4[C@@H]5CC(C)(C)CC[C@]5(C)CC[C@@]4(C)[C@]3(C)CC[C@H]2C1(C)C [Compound 4, β-amyrin acetate]	> 85.5 µM	> 85.5 µM	> 85.5 µM	> 85.5 µM		> 85.5 µM												
C=C(C)[C@@H]1CC[C@]2(C)CC[C@]3(C)[C@H](CC[C@@H]4[C@@]5(C)CC[C@H](OC(C)=O)C(C)(C)[C@@H]5CC[C@]43C)[C@@H]12 [Compound 5, lupeol acetate]	10.7 ± 0.75 µM	> 85.5 µM	> 85.5 µM	> 85.5 µM		> 85.5 µM	> 8.00											
CO[C@H]1[C@H](O)[C@@H](O)[C@@H](O)[C@@H](O)[C@@H]1O [Compound 6, 5-O-methyl-myo-inositol or sequoyitol]	167 ± 12 µM	> 206 µM	45.1 ± 3.42 µM	> 206 µM		> 206 µM	> 1.24	> 4.57										
COc1cc(O)c2c(=O)c(O[C@H]3OC(C)[C@@H](O)C(O)[C@H]3O)c(-c3ccc(O)c(O)c3)oc2c1 (stereo partly shown) [Compound 7, rhamnitrin or 7-O-methylquercetin 3-O-rhamnoside]	60.9 ± 5.39 µM	> 86.6 µM	> 86.6 µM	52.3 µM		> 86.6 µM	0.86											
COc1cc(O)c2c(=O)c(O[C@H]3OC(C)[C@@H](O)C(O)[C@H]3O)c(-c3cc(O)c(O)c(O)c3)oc2c1 (stereo partly shown) [Compound 8, europetin 3-O-rhamnoside or 7-O-methylmyricetin 3-O-rhamnoside]	16.7 ± 1.81 µM	> 83.7 µM	> 83.7 µM	> 83.7 µM		> 83.7 µM	> 5.00											
COc1cc2c(c(O)c1CC=C(C)C)C(=O)[C@H](O)[C@@H](c1ccc(O)cc1)O2 [Compound 9, thonningiol]	0.36 ± 0.01 µM	5.65 ± 0.03 µM	3.88 ± 0.04 µM	45.5 ± 4.17 µM	8.6	5.28 ± 0.06 µM	124.59	11.72	8.05	28.3%	11.6%	Go/G1	3.97 fold	2.67 fold	11.2%	4.46 fold	< 10 µM	
CC1(C)C=Cc2c(O)ccc(C3COc4cc(O)cc(O)c4C3=O)c2O1 (stereo not shown) [Compound 10, glyasperin F]	11.1 ± 0.88 µM	20.9 ± 1.64 µM	16.9 ± 1.2 µM	> 113 µM	> 6.42	17.6 ± 1.39 µM	> 10.14	> 6.69	> 5.41								< 85 µM	
C=C(CO)C1Cc2cc3c(cc2O1)OCC1c2ccc(O)cc2OC31 (stereo not shown) [Compound 11, seputhecarpan B]	11.9 ± 0.94 µM	57.9 ± 3.89 µM	61.9 ± 4.2 µM	> 118 µM	> 1.4	84.4 ± 6.32 µM	> 9.93	> 1.91	> 2.04								< 85 µM	
C=C(CO)C1Cc2cc3c(cc2O1)OCC1c2ccc(OC)cc2OC31 (stereo not shown) [Compound 12, seputhecarpan C]	13.3 ± 0.67 µM	37.8 ± 1.76 µM	76.7 ± 7.24 µM	> 114 µM	> 1.69	67.3 ± 3.98 µM	> 8.55	> 1.48	> 3.00								< 85 µM	
CC1(C)C=Cc2c(cc(O)c3c(=O)c4cc5c(c(O)c4oc23)OC(C)(C)C=C5)O1 [Compound 14, rheediaxanthone A]	> 102 µM	> 102 µM	14.6 ± 0.93 µM	80.3 ± 5.42 µM	35.5	3.15 ± 0.01 µM		5.50										
COc1cccc2c1C(=O)c1c(O)c3c(c(O)c1C2=O)C[C@@](O)(C(=O)CO)C[C@@H]3O[C@H]1C[C@H](N)[C@H](O)[C@H](C)O1 [Doxorubicin, doxorubicin, reference compound]	0.35 ± 0.05 µM	0.37 ± 0.05 µM	0.18 ± 0.03 µM	0.59 ± 0.01 µM						60%	27.6%			1.3 fold	up to 26.0%	2.40 fold		0.72 ± 0.13 µM
